The source of these data is PMC11770821, “Pharmacokinetics and pharmacodynamics of an innovative psychedelic N,N-dimethyltryptamine/harmine formulation in healthy participants: a randomized controlled trial” (International Journal of Neuropsychopharmacology, 2025).

A short description of data set [1]: clinical. Conditions: male, human, plasma, other: intranasal (DMT), buccal (harmine).
Method: (§1) The study was conducted as a within-subject, double-blind, randomized placebo-controlled trial. Randomization was performed by an independent individual using a computer-generated random number sequence. All participants underwent 3 randomized drug treatments on separate study days, with an intervening washout period of at least 2 weeks: (1) DMT/HAR: harmine hydrochloride (HCl; 100 mg; buccal orodispersible tablet; ODT) plus DMT (as hemifumarate; 100 mg; intranasal: 10 mg every 15 minutes over 150 minutes), (2) HAR/PLA: harmine (100 mg, buccal ODT) plus placebo nasal spray (NaCl; at same dosing intervals), and (3) PLA/PLA: placebo buccal ODT plus placebo nasal spray. In all conditions, buccal tablets were premedicated for 30 minutes. Food or water intake was not allowed 2 hours before drug administration.
(§2) Thirty minutes following buccal premedication with harmine HCl (100 mg) or placebo, the intranasal repeated-intermittent administration of DMT or placebo was initiated. Volunteers received up to 100 mg DMT in 10 mg dosing steps each 15 minutes (2 × 2 puffs per nostril) over a period of 150 minutes (except for a 30-minute break between 60 and 90 minutes due to a behavioral task). […] Volunteers could adjust each dose (0, 5, 10 mg) based on tolerance, with encouragement to follow the regimen if no adverse effects (AEs) occurred. Thus, volunteers were given the chance to control the psychedelic strength of the experience to enhance safety and tolerability.
(§3) Blood samples were collected from the left or right antecubital vein at −30 (baseline), 0, 30, 60, 90, 120, 150, 180, 195, 210, 240, 270, and 300 minutes after first DMT/placebo administration for analysis of blood plasma levels of harmine, DMT, the 3 major DMT metabolites 3-IAA, DMT-N-oxide, and NMT and the major harmine metabolite harmol. While DMT administration was ongoing, blood drawing was always performed right before DMT administration (time point -1 minute). The venous catheter was connected to a 100 mm Heidelberger plastic tube extension to collect blood samples without disturbing the volunteers during their psychedelic experience. The intravenous line was kept patent with a slow drip (10 mL/h) of heparinized saline (1000 IU heparin in 0.9 g NaCl/dL; HEPARIN Bichsel; Bichsel AG). Blood samples were immediately centrifuged for 10 minutes at 2000 RCF. Then, plasma was transferred to Eppendorf tubes, shock-frosted in liquid nitrogen (~ −196 °C) and stored at −80 °C until assay.
(§4) The data were analyzed and visualized with R Studio version 2021.09.2 + 382.[36] PK-PD parameters were computed using the R-package PKNCA.[37] For Cmax, tmax, AUCs (area under the curves), and half-life calculations, non-compartmental analyses were performed.[38] […] Post hoc pairwise comparisons were calculated using paired Wilcoxon signed-rank tests. P-values were adjusted using the Benjamini-Hochberg multiple testing correction method. Pearson or Spearman correlations were performed (as appropriate according to Shapiro-Wilk tests) to analyze associations between DMT plasma levels and subjective effects.
(§5) For the sample preparation 200 µl of plasma were spiked with 50 µl internal standard (IS) mixture (40 ng/ml DMT-d6 and harmine-d3) and 50 µl methanol (MeOH). Proteins were precipitated by adding 400 µl of acetonitrile (ACN). The samples were shaken for 10 minutes and centrifuged for 5 min at 10‘000 rpm. 350 µl of the supernatant was transferred into an auto-sampler vial, evaporated to dryness under a gentle stream of nitrogen at room temperature and reconstituted in 100 µl eluent-mixture (98:2, v/v).
Data set [2] can be described thus: Plasma pharmacokinetics of DMT, harmine and their metabolites (non-compartmental analysis).
Method: as §1, §2, §3, §4, §5
In data set [3] the test system is healthy male volunteers. The experiment in a line: Acute subjective drug effects, visual analog scales (VAS 0–100). The class given is in vivo, human. On the procedure:
The detailed dosing scheme is depicted in Figure 1.
The intensity of acute subjective effects was monitored with visual analog scales (VASs, range 0–100) on a touchscreen tablet throughout the study day at baseline (−90), 0, 30, 60, 90, 120, 180, 240, and 300 after the first DMT/placebo administration. At 360 minutes after the first DMT/placebo administration, a phenomenological interview was conducted with participants to further explore acute subjective drug effects. For PK-PD analyses, we included VAS for intensity, liking, disliking, and arousal in the present paper. Further analyses on a set of neurophysiological, psychometric, and phenomenological assessments will be presented in forthcoming manuscripts.

`O=C(O)Cc1c[nH]c2ccccc12` [3-IAA, indole-3-acetic acid]: in data set [1], the AUC worked out at 7580 ng·h/mL, the highest level (Cmax) was 2910 ng/mL and the Tmax stood at 4.1 h. Also, the “plasma levels after harmine administration” value in data set [2] (harmine-only (HAR) condition) is reported as “decreased”.

For the compound `CN(C)CCc1c[nH]c2ccccc12` [DMT, N,N-dimethyltryptamine], in data set [3] (DMT + harmine condition, 95% CI 0.51-0.66), the “correlation (r) between subjective intensity ratings and DMT plasma levels” value is 0.59. In addition, the “duration of psychedelic effects / overall drug action” value in data set [3] (DMT + harmine, after first DMT administration) is no more than 240 min. The “duration of acute drug (psychedelic) effects” value in data set [3] (DMT co-administered with harmine) fell in the range of 2 to 3 h. Moreover, in data set [2] (DMT + harmine condition), the “time blood plasma levels remained constant after the last intranasal DMT dose” value came out at 30 min. Further, the half-life in data set [2] (male, human, plasma, other: intranasal) amounted to 0.6 h.

As for `C[N+](C)([O-])CCc1c[nH]c2ccccc12` [DMT-N-oxide], the t1/2 in data set [2] (DMT + harmine condition, plasma elimination half-life, mean (SD)) is on record as 1.2 (0.4) h. Also, the AUCinf in data set [2] (DMT + harmine condition, plasma, time zero to infinity, mean (SD)) was 69.2 (22.1) ng × h/mL.

The AUC is concentration integrated over time. Low values mean less exposure, high ones more exposure. By Cmax is commonly meant the peak of the concentration-time curve. For orientation: Tmax means the time at which the peak concentration occurs. For orientation: half-life means how long it takes for the measured level to halve.
